Data on 3 compounds can be found in patent US7879878B2, “Quinolone derivative or salt thereof” (Astellas Pharma Inc., priority 2003, dated 2011).

In assay [1] the test system is Human platelet aggregation. The assay is described as follows: Test for assaying human platelet aggregation-inhibiting activity (ADP-induced aggregation in platelet-enriched plasma). In kind it is cell-based. Conditions: compound at 10 μM final concentration; human PRP; aggregation induced by ADP; area-under-the curve of platelet aggregation as indicator; read-out: % inhibition (Human platelet aggregation-inhibiting action). As for the experimental part: (1) Test for Assaying Human Platelet Aggregation-Inhibiting Activity
Blood was withdrawn from healthy human volunteers (adult males), in the presence of a 1/10th volume of sodium citrate, and centrifuged to obtain supernatant platelet-enriched plasma (PRP). The platelet count in PRP was determined with an automatic blood cell counter (MEK-6258; manufactured by NIHON KOHDEN CORPORATION). Then, the platelet count in PRP was adjusted to 3×10^8/ml with platelet-poor plasma. ADP as a platelet aggregation-inducing agent was a product of MCMEDICAL, Inc. Platelet aggregation was measured using an aggregometer (MCM Hematracer 212; MCMEDICAL, Inc.). Specifically, 80 μl of PRP and 10 μl of a solution of an active ingredient or compound of the invention or a solvent (10% DMSO) were incubated together at 37° C. for one minute, to which 10 μl of ADP (50 μM) was added to induce platelet aggregation. Then, the change of the transmitting light was recorded over 5 minutes. Using the area-under-the curve of platelet aggregation as an indicator, the inhibition ratio was calculated.

In another assay the target is T1, human P2Y12 (Homo sapiens, UniProt Q9H244).
T1 construct: expressed in transfected cells; membrane fraction
T1 sequence (Q9H244 whole entry): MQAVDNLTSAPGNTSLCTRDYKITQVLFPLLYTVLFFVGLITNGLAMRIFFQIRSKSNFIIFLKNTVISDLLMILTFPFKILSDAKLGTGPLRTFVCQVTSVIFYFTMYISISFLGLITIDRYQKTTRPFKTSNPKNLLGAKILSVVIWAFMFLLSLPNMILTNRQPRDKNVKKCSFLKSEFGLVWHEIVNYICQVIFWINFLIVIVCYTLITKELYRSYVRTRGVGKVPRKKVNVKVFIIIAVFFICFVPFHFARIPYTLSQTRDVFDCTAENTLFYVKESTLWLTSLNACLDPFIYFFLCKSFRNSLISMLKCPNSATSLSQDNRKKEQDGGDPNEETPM
The assay is described as follows: Substitution test of the binding between human P2Y12 and 2-methylthio-ADP (2-MeS-ADP). Conditions: compound at 30 nM final concentration; [3H]-2-MeS-ADP; membrane fraction of C6-15 cells expressing human P2Y12. As for the experimental part: (2) Substitution Test of the Binding Between Human P2Y12 and 2-methylthio-ADP (2-MeS-ADP)
After C6-15 cells were inoculated on a DMEM culture medium to 1×10^6 cells in a 10-cm petri dish for culturing for one day, where 8 μg of a plasmid pEF-BOS-dhfr-human P2Y12 and 0.8 μg of pEF-BOS-neo (Nucleic Acid Res., 18, 5322, 1990) were genetically introduced with a transfection reagent (LipofectAMINE 2000; manufactured by GIBCO BRL).
24 hours after the gene introduction procedure described above, the cells with the gene introduced therein were recovered and suspended in a DMEM culture medium containing 0.6 mg/ml G418 (manufactured by GIBCO BRL), to prepare serial dilutions, which were inoculated on a 10-cm petri dish. Colonies appearing 2 weeks later were individually obtained and defined as C6-15 cell expressing the protein P2Y12, for use in the following experiment (WO 02/36631, Mol. Pharmacol., 60, 432, 2001).
The C6-15 cell expressing the protein P2Y12 was cultured and recovered. […]
1.5 μl of an active ingredient or compound of the invention and 50 μl of 0.75 nM [^3H]-2-MeS-ADP (80 Ci/mmol; manufactured by Amersham Pharmacia Biotech) were added to 100 μl of the P2Y12 protein-expressing C6-15 cell membrane fraction (100 μg/ml) thus prepared, for incubation in 50 mM Tris-HCl, pH 7.4 containing 100 mM NaCl and 50 mM MgCl2, at ambient temperature for one hour. […] Adding a microscintillator onto the glass filter, the radioactivity was assayed with a liquid scintillation counter. At the test, additionally, the radioactivity levels of such cell cultures with no addition of the compound and with addition of 1.5 μl of 100 μM 2-MeS-ADP were assayed as total binding and non-specific binding, respectively. Defining the total binding and the non-specific binding at inhibition ratios of 0% and 100%, respectively, the inhibition ratio (%) of an active ingredient or compound in accordance with the invention was calculated.

In the case of `CC1(C)OCC(n2cc(C(=O)NCCP(=O)(O)O)c(=O)c3cc(F)c(NC4CCCCC4)cc32)CO1` [Example 18, [2-({[7-(cyclohexylamino)-1-(2,2-dimethyl-1,3-dioxan-5-yl)-6-fluoro-4-oxo-1,4-dihydroquinolin-3-yl]carbonyl}amino)ethyl]phosphonic acid], the inhibition at 10 µM in assay [1] is 92%. The compound further returned an inhibition at 0.03 µM at human P2Y12 of 96%.

With `CCOP(=O)(O)CCNC(=O)c1cn(C(CO)CO)c2cc(NC3CCCCC3)c(F)cc2c1=O` [Example 22, ethyl{2-[({7-(cyclohexylamino)-6-fluoro-4-oxo-1-[2-hydroxy-1-(hydroxymethyl)ethyl]-4-oxo-1,4-dihydroquinolin-3-yl}carbonyl)amino]ethyl}phosphonic acid], the “% inhibition (Inhibition activity of the binding between P2Y12 and 2-MeS-ADP)” value on human P2Y12 amounted to 75%. Turning to `CCC(CC)n1cc(C(=O)NC(C)(C)C(=O)O)c(=O)c2cc(F)c(NC3CCCCC3)cc21` [Example 28, 2-({[7-(cyclohexylamino)-1-(1-ethylpropyl)-6-fluoro-4-oxo-1,4-dihydroquinolin-3-yl]carbonyl}amino)-2-methylpropionic acid], at human P2Y12, at 0.03 µM the inhibition was 63%.

As usually defined, the inhibition is the change of the read-out against control, counted positive when it falls.
